Read-outs that look alike come from different tables or passages of the source.
Columns and labels:
[1] = In vitro human microsomal stability assay; assay type: in vitro ADME; conditions: for HUMAN MICROSOMAL STABILITY (% REMAINING AFTER 30 MINUTES): microsomes, 0.5 h, 0.5 μM, pH 7.4; for HUMAN […] (% REMAINING AFTER 30 MINUTES): human liver microsomes, 0.5 μM substrate, 0.25 mg/mL microsomal protein, pH 7.4, 37° C., NADPH
Protocol: (§1) Test compounds were evaluated for metabolic stability in an in vitro rat microsomal stability assay using rat liver microsomes (Sprague-Dawley, from BD Biosciences) and/or an in vitro human microsomal stability assay using human liver microsomes (Xenotech). […] Incubations were carried out at 37° C. with a final incubation volume of 135 μL. […] A 1.5 μL aliquot of reduced nicotine adenine disphosphonucleotide (NADPH) (Chem-Impex Int'L Inc., Lot 12532024) was also added to the time-zero plates.

[2] = biological target: T1, human TRPV3 (Homo sapiens, UniProt Q8NET8); test: In vitro antagonism of recombinant human TRPV3 activation (FLIPR Tetra calcium assay); assay type: cell-based; conditions: HEK293 cells stably expressing human TRPV3, agonist 2-APB at 80 μM
T1 construct: expressed in transfected cells
T1 sequence (Q8NET8 1-790): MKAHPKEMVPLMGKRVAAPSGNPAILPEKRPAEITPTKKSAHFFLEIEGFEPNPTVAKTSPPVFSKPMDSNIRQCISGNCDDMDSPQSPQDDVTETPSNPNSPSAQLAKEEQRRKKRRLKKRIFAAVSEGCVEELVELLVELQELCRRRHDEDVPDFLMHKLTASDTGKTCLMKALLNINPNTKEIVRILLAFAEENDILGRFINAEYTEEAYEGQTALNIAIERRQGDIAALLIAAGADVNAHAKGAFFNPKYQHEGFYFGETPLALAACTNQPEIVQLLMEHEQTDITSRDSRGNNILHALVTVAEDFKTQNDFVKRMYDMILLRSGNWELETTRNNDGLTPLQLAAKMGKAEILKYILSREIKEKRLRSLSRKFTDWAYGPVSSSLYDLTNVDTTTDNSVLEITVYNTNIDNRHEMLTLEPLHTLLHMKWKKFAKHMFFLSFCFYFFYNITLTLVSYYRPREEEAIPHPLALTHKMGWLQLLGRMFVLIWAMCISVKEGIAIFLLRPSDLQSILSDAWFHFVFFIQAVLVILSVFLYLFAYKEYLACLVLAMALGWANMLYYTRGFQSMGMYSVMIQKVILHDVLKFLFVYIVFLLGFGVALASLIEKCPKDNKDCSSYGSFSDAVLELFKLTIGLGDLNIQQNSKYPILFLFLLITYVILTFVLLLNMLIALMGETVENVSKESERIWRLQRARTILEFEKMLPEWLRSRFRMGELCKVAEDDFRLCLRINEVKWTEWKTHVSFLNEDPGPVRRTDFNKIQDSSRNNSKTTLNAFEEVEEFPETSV
Protocol: Test compounds were evaluated for ability to antagonize the activation of recombinant human TRPV3 using FLIPR® Tetra cellular screening. Specifically, on the day prior to the experiment recombinant HEK293 cells that stably express human TRPV3 were removed from tissue culture flasks and plated in growth medium at 20,000 cells/well into Poly-d-lysine coated black/clear 384-well Plate (Corning, 3845) using a Multidrop® dispenser (ThermoScientific, Waltham, Mass.). Prior to the start of the assay, the medium was removed by aspiration, and cells were loaded with 30 μL no-wash FLIPR® Calcium-4 dye (λEX=470-495 nm, λEM=515-575 nm; Molecular Devices, Sunnyvale, Calif.). The cells were then incubated for 90-120 minutes in the dark prior to addition of the test compound.
A double-addition protocol was used. The test compound (i.e., the TRPV3 antagonist) was added at the 10 second time point, followed by the addition of a TRPV3 agonist three minutes later. Each test compound evaluated was first dissolved in DMSO to prepare a 10 mM stock solution. A solution (5×) of the test compound was then prepared in DPBS (Dulbecco's Phosphate Buffered Saline) and 10 μl, of that solution was added to the cells at a delivery rate of 40 μL/sec. The TRPV3 agonist used to activate human TRPV3 expressed by the […] was 2-aminoethoxy-diphenyl borate (2-APB; Tocris Cookson, Ellisville, Mo.) at 80 μM. Final assay volume was 50 μl, Total length of an experimental run was 10 minutes.
Changes in fluorescence were measured over time using the FLIPR® instrument. The intensity of the fluorescence was captured and digitally transferred to an interfaced computer. The maximum response minus minimum response was calculated and expressed as the percentage of the maximum 2-APB response in the absence of antagonist. The concentration of 2-APB corresponds to its EC80.
Table 1 reports the IC50 values measured for the test compounds as human TRPV3 antagonists. […] Actual measured values are shown parenthetically after the reported range. In most cases, the values reported are average values from at least two runs (i.e., n≧2).

[3] = In vitro rat microsomal stability assay; assay type: in vitro ADME, rat (Sprague-Dawley); conditions: for RAT MICROSOMAL STABILITY (% REMAINING AFTER 30 MINUTES): Sprague-Dawley, microsomes, 0.5 h, 0.5 μM, pH 7.4; for RAT […] (% REMAINING AFTER 30 MINUTES): rat liver microsomes (Sprague-Dawley), 0.5 μM substrate, 0.25 mg/mL microsomal protein, pH 7.4, 37° C., NADPH
Protocol: as §1

[4] = actual measured value shown parenthetically, in most cases average of at least two runs, read-out: IC50
[5] = reported range, read-out: IC50 (range class)

| Compound | IC50 [2, 4] [µM] | RAT MICROSOMAL STABILITY (% REMAINING AFTER 30 MINUTES) [3] [%] | other results |
| --- | --- | --- | --- |
| COC1CC(c2ccc(Cl)c(Cl)c2)([C@H](O)c2ccccn2)C1 (mixture of isomers) [Example 151, (S)-[1-(3,4-dichlorophenyl)-3-methoxycyclobutyl](pyridin-2-yl)methanol] | 1.24 | <0.01 | HUMAN MICROSOMAL STABILITY (% REMAINING AFTER 30 MINUTES) [1]: 32% |
| OC1CC(c2ccc(C(F)(F)F)cc2)([C@H](O)c2ccccn2)C1 (mixture of isomers) [Example 166, 3-[(S)-hydroxy(pyridin-2-yl)methyl]-3-[4-(trifluoromethyl)phenyl]-cyclobutanol] | 5.94 | >85 | HUMAN MICROSOMAL STABILITY (% REMAINING AFTER 30 MINUTES) [1]: >85% |
| OC1CC(c2ccc(C(F)(F)F)cc2)([C@@H](O)c2ccccn2)C1 (mixture of isomers) [Example 199, 3-[(R)-hydroxy(pyridin-2-yl)methyl]-3-[4-(trifluoromethyl)phenyl]-cyclobutanol] | > 20 | >85 | HUMAN MICROSOMAL STABILITY (% REMAINING AFTER 30 MINUTES) [1]: >85%; IC50 [2, 5]: > 20 µM |
| O[C@@H](c1ccccn1)[C@]1(c2cc(C(F)(F)F)ccn2)C[C@H](O)C1 (relative stereo) [Example 290, cis-3-[(R)-hydroxy(pyridin-2-yl)methyl]-3-[4-(trifluoromethyl)pyridin-2-yl]cyclobutanol] | – | – | HUMAN […] (% REMAINING AFTER 30 MINUTES) [1]: >85%; IC50 [2, 5]: > 20 µM; RAT […] (% REMAINING AFTER 30 MINUTES) [3]: 71% |
| OC(c1ccccn1)C1(C2=CCCOC2)CCC1 (single isomer, unassigned) [Example 269, [1-(5,6-dihydro-2H-pyran-3-yl)cyclobutyl](pyridin-2-yl)methanol] | – | 12 | HUMAN MICROSOMAL STABILITY (% REMAINING AFTER 30 MINUTES) [1]: 40% |
| OC(c1ccccn1)C1(C2=COCCC2)CCC1 (single isomer, unassigned) [Example 270, [1-(3,4-dihydro-2H-pyran-5-yl)cyclobutyl](pyridine-2-yl)methanol] | – | 0.48 | HUMAN MICROSOMAL STABILITY (% REMAINING AFTER 30 MINUTES) [1]: 17% |
| CC1(O)CC(c2cncc(C(F)(F)F)c2)(C(O)c2ccccn2)C1 (single isomer, unassigned) [Example 309] | 3.05 | – | HUMAN MICROSOMAL STABILITY (% REMAINING AFTER 30 MINUTES) [1]: >85% |
| CCN(CC)c1ccc(C2(C(O)c3ccccn3)CCC2)cc1 (centres unmarked) [Example 18, {1-[4-(diethylamino)phenyl]cyclobutyl}(pyridin-2-yl)methanol] | 0.74 | 0.27 | – |
| OC(c1ncccn1)C1(c2cccc(OC(F)(F)F)c2)CCC1 (centres unmarked) [Example 37, pyrimidin-2-yl{1-[3-(trifluoromethoxy)phenyl]cyclobutyl}methanol] | 0.83 | 7.7 | – |
| OC(c1ncccn1)C1(c2ccc(Cl)c(Cl)c2)CCC1 (centres unmarked) [Example 38, [1-(3,4-dichlorophenyl)cyclobutyl] (pyrimidin-2-yl)methanol] | 0.06 | 9.5 | – |
| CC(c1cccc(C(F)(F)F)c1)C1(C(O)c2ccccn2)CCC1 (centres unmarked) [Example 54, pyridin-2-yl(1-{1-[3-(trifluoromethyl)phenyl]ethyl}cyclobutyl)methanol] | 22 | 0.21 | – |
| OC(C1CCc2cccnc21)C1(c2ccccc2OC(F)(F)F)CCC1 (stereo not drawn) [Example 193, (anti)-6,7-dihydro-5H-cyclopenta[b]pyridin-7-yl{1-[2-(trifluoromethoxy)-phenyl]cyclobutyl}methanol] | – | – | HUMAN […] (% REMAINING AFTER 30 MINUTES) [1]: 0.02%; RAT […] (% REMAINING AFTER 30 MINUTES) [3]: <0.01% |
| NC1CCCC1C(O)C1(c2cccc(OC(F)(F)F)c2)CCC1 (centres unmarked) [Example 208, (2-aminocyclopentyl) {1-[3-(trifluoromethoxy)phenyl]cyclobutyl}methanol] | 2.06 | 36 | – |
| NC1CCCCC1C(O)C1(c2ccc(OC(F)(F)F)cc2)CCC1 (centres unmarked) [Example 209, (2-aminocyclohexyl) {1-[4-(trifluoromethoxy)phenyl]cyclobutyl}methanol] | 4.6 | – | – |
| NC1CCCCC1C(O)C1(c2cccc(OC(F)(F)F)c2)CCC1 (centres unmarked) [Example 210, (2-aminocyclohexyl) {1-[3-(trifluoromethoxy)phenyl]cyclobutyl}methanol] | 3.31 | – | – |
| NC1CCCCC1C(O)C1(c2ccc(Cl)c(Cl)c2)CCC1 (centres unmarked) [Example 211, (2-aminocyclohexyl)[1-(3,4-dichlorophenyl)cyclobutyl]methanol] | 6.17 | – | – |
| NC1CCCC1C(O)C1(c2ccccc2OC(F)(F)F)CCC1 (centres unmarked) [Example 214, (2-aminocyclopentyl) {1-[2-(trifluoromethoxy)phenyl]cyclobutyl}methanol] | 1.22 | – | – |
| NC1CCCC1C(O)C1(c2ccc(Cl)c(Cl)c2)CCC1 (centres unmarked) [Example 215, (2-aminocyclopentyl)[1-(3,4-dichlorophenyl)cyclobutyl]methanol] | 0.77 | – | – |
| N[C@H]1CCC[C@H]1[C@@H](O)C1(c2ccc(Cl)c(Cl)c2)CCC1 [Example 218, (R)-[(1R,2S)-2-aminocyclopentyl][1-(3,4-dichlorophenyl)cyclobutyl]-methanol] | 1.73 | – | – |
| N[C@H]1CCC[C@@H]1[C@H](O)C1(c2ccc(Cl)c(Cl)c2)CCC1 [Example 219, (S)-[(1S,2S)-2-aminocyclopentyl][1-(3,4-dichlorophenyl)cyclobutyl]-methanol] | 3.07 | – | – |
| OC(c1ccccn1)C1(C2CCOCC2)CCC1 (centres unmarked) [Example 239, pyridin-2-yl[1-(tetrahydro-2H-pyran-4-yl)cyclobutyl]methanol] | – | 0.072 | HUMAN MICROSOMAL STABILITY (% REMAINING AFTER 30 MINUTES) [1]: 57% |
| OC(c1ccccn1)C1(C2=CCOCC2)CCC1 (centres unmarked) [Example 252, [1-(3,6-dihydro-2H-pyran-4-yl)cyclobutyl](pyridin-2-yl)methanol] | > 20 | – | IC50 [2, 5]: > 20 µM |
| CC1(O)CC(c2cccc(OC(F)(F)F)c2)(C(O)c2ccccn2)C1 [Example 263, trans-3-[(S)-hydroxy(pyridin-2-yl)methyl]-1-methyl-3-[3-(trifluoromethoxy)phenyl]cyclobutanol] | 2.8 | >85 | – |
| CC1(O)CC(c2ccc(OC(F)(F)F)cc2)(C(O)c2ncccn2)C1 [Example 311, (trans)-3-((R)-hydroxy(pyrimidin-2-yl)methyl)-1-methyl-3-(4-(trifluoromethoxy)phenyl)cyclobutanol] | > 20 | >85 | IC50 [2, 5]: > 20 µM |
